# Measured values as given in EP0068669A1, “Secondary phenylethanol amines, processes for their preparation and their pharmaceutical application” (priority 1981, dated 1983).
# Columns and labels:
# Type in all cases: in vivo
# Male CFLP mice = test: Platelet aggregation inhibition activity, response to intravenous collagen; details: oral dose two hours before intravenous collagen 400 µg/kg; blood platelet concentration 30 sec after collagen; Aspirin 600(108), Example 8 2.5 (1) µmol(mg)/kg p.o.
# Procedure: Male CFLP mice (ca 20 g, n=8) were dosed orally with compound or vehicle (controls) after an overnight fast. Two hours later each mouse received an intravenous dose of collagen (400 µg/kg, pH 6-6.6). Exactly 30 sec after injection of collagen, each mouse was placed in a chamber of C02 until respiration ceased. […] Each concentration was expressed as a per cent of that obtained in a tail blood sample taken immediately before injection of collagen.
# Female CFLP mice [1] = test: Effect on energy expenditure and food intake of mice; details: 19.5-26.3 mg/kg p.o. (per compound, see Dose column); for Mean Food Intake: percentage of mean food intake of mice dosed with water, over 21 hours after a single oral dose; for Mean Energy Expenditure (0-3 h) / Mean Energy Expenditure (0-21 h): percentage of mean rate of energy expenditure of mice dosed with water, single oral dose, 12 mice; for Mean Energy Expenditure (0-3 h): 0-3 h after dosing; for Mean Energy Expenditure (0-21 h): 0-21 h after dosing
# Procedure: The compounds were dissolved in water by addition of one mole of hydrochloric acid per mole of compound and these solutions were administered orally to each of 12 mice. A further 12 mice were dosed orally with water. The mice were placed in boxes through which air was drawn and the oxygen content of the air leaving the boxes was measured. The energy expenditure of the mice was calculated for 21 hours after dosing from the volume of air leaving the boxes and its oxygen content, following the principles described by J.B. de V. Weir, J. Ph^ysiol. (London) 109, 1-9, (1949). The food intake of the mice was measured over this same period of 21 hours. The results are expressed as a percentage of the mean food intake or rate of energy expenditure of the mice dosed with water.
# Female CFLP mice [2] = test: Hypoglycaemic activity, subcutaneous glucose load in fasted mice; details: oral dose 1.0-12.5 μmol/kg (per compound, see Dose column), 30 minutes before glucose 1 g/kg subcutaneously; area over 2 hours compared with control mice given water; mice fasted 24 hours
# Procedure: Female CFLP mice, weighing approximately 25 g, were fasted for 24 hours prior to the study. The compounds under study were administered orally as an aqueous solution to each of 8 mice. 30 minutes later a blood sample (20 µℓ) was obtained from the tail for the analysis of blood glucose. Immediately after taking this blood sample, glucose (1 g/kg body weight) was administered subcutaneously to each mouse. 8 mice were given water as a control. Blood samples were then obtained from each mouse at 30-minute intervals for 120 minutes.
# Compounds that produced a significant (P<0.05) reduction of blood glucose, compared with control mice given water, at any time interval , were considered active. The area under the blood glucose curve over the 2 hour period after the administration of the glucose was calculated for each compound and compared with the value for control animals.
SMILES,% Inhibition of response to collagen (Male CFLP mice),Mean Food Intake (Female CFLP mice [1]) [percentage],Mean Energy Expenditure (0-3 h) (Female CFLP mice [1]) [percentage],Mean Energy Expenditure (0-21 h) (Female CFLP mice [1]) [percentage],% Reduction in area under Blood glucose curve (Female CFLP mice [2]) [%]
"CC(=O)Oc1ccccc1C(=O)O [Aspirin, reference compound]",38 p<0.05%,–,–,–,–
"CC(Cc1ccc(NS(C)(=O)=O)cc1)NCC(O)c1ccccc1 (centres unmarked) [Example 1, N-(2-(4-Methylsulphonylaminophenyl)-1-methylethyl]-2-hydroxy-2-phenylethanamine]",–,80,130,95,24.7
"CC(Cc1ccc(NS(C)(=O)=O)cc1)NCC(O)c1cccc(C(F)(F)F)c1 (centres unmarked) [Example 2, N-[2-(4-Methylsulphonylaminophenyl)-1-methylethyl]-2-hydroxy-2-(3-trifluoromethylphenyl)ethanamine]",–,99,142,102,–
"CCOC(=O)Nc1ccc(CC(C)NCC(O)c2cccc(C(F)(F)F)c2)cc1 (centres unmarked) [Example 3, N-[2-(4-Ethoxycarbonylaminophenyl)-1-methylethyl]-2-hydroxy-2-(3-trifluoromethylphenyl)ethanamine]",–,76,139,121,–
"CC(=O)Nc1ccc(CC(C)NCC(O)c2cccc(C(F)(F)F)c2)cc1 (centres unmarked) [Example 4, N-(2-(4-Acetylaminophenyl)-1-methylethyl)-2-hydroxy-2-(3-trifluoromethylphenyl)ethanamine]",–,72,151,115,15.9
"CNC(=O)Nc1ccc(CC(C)NCC(O)c2cccc(C(F)(F)F)c2)cc1 (centres unmarked) [Example 5, N-[2-(4-Methylaminocarbonylaminophenyl)-1-methylethyl]-2-hydroy-2-(3-trifluoromethylphenyl)ethanamine]",–,72,159,121,–
"CCNc1ccc(CC(C)NCC(O)c2cccc(C(F)(F)F)c2)cc1 (centres unmarked) [Example 6, N-[2-(4-Ethylaminophenyl)-1-methylethyl]-2-hydroxy-2-(3-trifluoromethvlphenvl)ethanamine]",–,108,169,128,–
"CC(Cc1ccc(N)cc1)NCC(O)c1cccc(C(F)(F)F)c1 (centres unmarked) [Example 7, N-[2-(4-Aminophenyl)-1-methylethyl]-2-hydroxy-2-(3-trifluoromethylphenyl) ethanamine]",–,84,182,118,38.0
"COC(=O)CNc1ccc(CC(C)NCC(O)c2cccc(C(F)(F)F)c2)cc1 (centres unmarked) [Example 8, N-[2-(4-Methoxycarbonylmethylaminophenyl)-1-methylethyl] -2-hydroxy-2-(3-trifluoromethylphenyl) ethanamine]",42 p<0.02%,–,140,–,36.2
"CC(Cc1ccc([N+](=O)[O-])cc1)NCC(O)c1cccc(C(F)(F)F)c1 (centres unmarked) [Example 9, N-[2-(4-Nitrophenyl)-1-methylethyl]-2-hydroxy-2-(3-trifluoromethylphenyl) ethanamine]",–,94,112,115,13.2
"CC(Cc1ccc(N(C)C)cc1)NCC(O)c1cccc(C(F)(F)F)c1 (centres unmarked) [Example 10, N-[2-(4-Dimethylaminophenyl]-1-methylethyl]-2-hydroxy-2-(3-trifluoromethylphenvl)ethanamine]",–,70,169,125,–
"CC(Cc1ccc(N2CCCC2)cc1)NCC(O)c1cccc(C(F)(F)F)c1 (centres unmarked) [Example 11, N-[2-(4-(1-Pyrrolidyl)phenyl)-1-methylethyl] -2-hydroxy-2-(3-trifluoromethylphenyl)ethanamine]",–,95,151,112,–
"CC(Cc1ccc(N2CCOCC2)cc1)NCC(O)c1cccc(C(F)(F)F)c1 (centres unmarked) [Example 12, N-[2-(4-(4-Morpholino)phenyl)-1-methylethyl]-2-hydroxy-2-(3-trifluoromethylphenyl)ethanamine]",–,72,143,121,–
"CCOC(=O)C1CCN(c2ccc(CC(C)NCC(O)c3cccc(C(F)(F)F)c3)cc2)CC1 (centres unmarked) [Example 13, N-[2-(4-(1-(4-Carboethoxy)piperidyl)phenyl)-1-methylethyl]-2-hydroxy-2-(3-trifluoromethylphenyl)ethanamine]",–,95,121,103,–
"CNC(=O)C1CCN(c2ccc(CC(C)NCC(O)c3cccc(C(F)(F)F)c3)cc2)CC1 (centres unmarked) [Example 14, N-[2-(4-(1-(4-N'-Methylcarboxamido)piperidyl)phenyl)-1-methylethyl]-2-hydroxy-2-(3-trifluoromethylphenyl)ethanamine]",–,106,118,102,–
